From US20130053337A1, “GUANIDINYLATED AMINOGLYCOSIDE-LIPID CONJUGATES” (UNIVERSITY OF MANITOBA, priority 2010, published 2013)
Values after ≈ are worked out from the molar mass of the structure shown. Read-outs that look alike come from different tables or passages of the source.

What was measured:
E. faecium ATCC 27270 = assay: MIC, broth macrodilution (CLSI); format: cell-based, Enterococcus faecium; details: E. facium ATCC27270
Protocol: (§1) All experiments were performed in duplicate.
(§2) Bacterial isolates studied included both reference strains obtained from the American Type Culture Collection (ATCC) as well as clinical strains obtained from the CAN-ICU study which was a national surveillance study assessing the prevalence of antimicrobial resistant pathogens in Canadian intensive care units (Zhanel et al., 2008). Isolates were kept frozen in skim milk at −80° C. until minimum inhibitory concentration (MIC) testing was carried out. Following two subcultures from frozen stock, the in vitro activities of peptides were determined by macrobroth dilution in accordance with the Clinical and Laboratory Standards Institute (CLSI) 2006 guidelines (Zhanel et al., 2008). Stock solutions of peptides were prepared and dilutions made as described by CLSI. Test tubes contained doubling antimicrobial dilutions of cation adjusted Mueller-Hinton broth and inoculated to achieve a final concentration of approximately 5×10^5 cfu/ml then incubated in ambient air for 24 hours prior to reading. Colony counts were performed periodically to confirm inocula. Quality control was regularly performed using ATCC QC organisms.

S. pneumoniae ATCC 49619 = assay: MIC, broth macrodilution (CLSI), broth with 5% laked horse blood; format: cell-based, Streptococcus pneumoniae; details: S. pneumoniae ATCC49619
Protocol: as §1, §2

S. aureus ATCC 29213 = assay: MIC, broth macrodilution (CLSI); format: cell-based, Staphylococcus aureus; details: S. aureus ATCC29213
Protocol: as §1, §2

MRSE CAN-ICU 61589 = assay: MIC, broth macrodilution (CLSI); format: cell-based, methicillin-resistant Staphylococcus epidermidis
Protocol: as §1, §2

E. coli ATCC 25922 = assay: MIC, broth macrodilution (CLSI); format: cell-based; details: E. coli ATCC25922
Protocol: as §1, §2

[1] = tested on: S. epidermidis ATCC 14990; assay: MIC, broth macrodilution (CLSI); format: cell-based, Staphylococcus epidermidis; details: S. epidermidis ATCC14990
Protocol: as §1, §2

MRSA ATCC 33592 = assay: MIC, broth macrodilution (CLSI); format: cell-based, methicillin-resistant Staphylococcus aureus; details: MRSA ATCC33592
Protocol: as §1, §2

E. faecalis ATCC 29212 = assay: MIC, broth macrodilution (CLSI); format: cell-based, Enterococcus faecalis; details: E. faecalis ATCC29212
Protocol: as §1, §2

[2] = tested on: E. coli (gentamicin-resistant) CAN-ICU 61714; assay: MIC, broth macrodilution (CLSI); format: cell-based; details: E. coli CAN-ICU 61714
Protocol: as §1, §2

P. aeruginosa ATCC 27853 = assay: MIC, broth macrodilution (CLSI); format: cell-based; details: P. aeruginosa ATCC27853
Protocol: as §1, §2

[3] = tested on: P. aeruginosa (gentamicin-resistant) CAN-ICU 62308; assay: MIC, broth macrodilution (CLSI); format: cell-based; details: P. aeruginosa CAN-ICU 62308
Protocol: as §1, §2

[4] = tested on: E. coli (amikacin MIC 32 mg/L) CAN-ICU 63074; assay: MIC, broth macrodilution (CLSI); format: cell-based; details: E. coli CAN-ICU 63074
Protocol: as §1, §2

[5] = tested on: sheep red blood cell (erythrocytes); assay: Hemolytic assay (in vitro toxicity)
Protocol: Antibacterial activity against Gram-positive and Gram-negative microorganisms was tested via broth macrodilution tests using CLSI methodology (Zhanel et al., 2008). Stock solutions of cationic lipids in water were brought to a concentration of 512 mg/L. Organisms were subcultured and isolated on blood agar, suspended in 3 mL of Mueller-Hinton broth at the turbidity of a […], and diluted to approximately 10^5 cfu/mL before introduction into tubes containing serially diluted lipopeptide antibiotic in Mueller-Hinton broth. Activity testing against S. pneumoniae used broth supplemented with laked horse blood to give 5% horse blood in experimental tubes. Turbidity of lipopeptide solution in broth required creation of control tubes lacking organisms serving as turbidity controls. All tubes were incubated overnight for 16-20 h at 37° C. […] All experiments were performed in duplicate. In-vitro toxicity was determined using a sheep red blood cell hemolytic assay as previously described (Dathe et al., 1996).
In vitro toxicity was determined using a sheep red blood cell (erythrocytes) hemolytic assay (Dathe et al., 1996). […] Erythrocytes were washed and resuspended in Tris buffered saline. The cell suspension was combined with varying concentrations (low to very high) of test and control antimicrobials (e.g., aminoglycosides and APTCs). The samples were centrifuged and the absorbance of the supernatants measured at 540 nm. Tris buffered saline and Triton X were used as negative and positive controls, respectively. The toxicity was assessed by percent hemolysis.

[6] = 100 mg/L, sheep erythrocytes, percent hemolysis

| Compound | MIC (E. faecium ATCC 27270) | MIC (S. pneumoniae ATCC 49619) | MIC (S. aureus ATCC 29213) | MIC (MRSE CAN-ICU 61589) | MIC (E. coli ATCC 25922) | MIC [1] | MIC (MRSA ATCC 33592) | MIC (E. faecalis ATCC 29212) | MIC [2] | MIC (P. aeruginosa ATCC 27853) | MIC [3] | MIC [4] | hemolytic activity at 100 mg/L [5, 6] | hemolytic activity compared to polyamine analogs 3 and 15 [5] | hemolytic activity at 100 mg/L [5] |
| --- | --- | --- | --- | --- | --- | --- | --- | --- | --- | --- | --- | --- | --- | --- | --- |
| CCCCCC(=O)NCC1OC(OC2C(O)C(NC(=N)N)CC(NC(=N)N)C2OC2OC(CNC(=N)N)C(O)C(O)C2NC(=N)N)C(O)C1OC1OC(CNC(=N)N)C(O)C(O)C1NC(=N)N.O=C(O)C(F)(F)F.O=C(O)C(F)(F)F.O=C(O)C(F)(F)F.O=C(O)C(F)(F)F.O=C(O)C(F)(F)F.O=C(O)C(F)(F)F (centres unmarked) [Compound 8, 1,3,2′,6′,2′″,6′″-Hexaammonium-guanidinyl-5″-deoxy-5″-N-(hexanoyl)-neomycin hexakis(trifluoroacetate)] | 256 µg/mL | >128 µg/mL | 128 µg/mL | 64 µg/mL | 128 µg/mL | 64 µg/mL |  |  |  |  |  |  |  |  |  |
| CCCCCCCCCCCCCCCC(=O)NCC1OC(OC2C(N)CC(N)C(OC3OC(CN)C(O)C(O)C3O)C2O)C(O)C(N)C1O.O=C(O)C(F)(F)F.O=C(O)C(F)(F)F.O=C(O)C(F)(F)F.O=C(O)C(F)(F)F (centres unmarked) [Compound 15, 1,3,6′,3″-Tetraammonium-6″-deoxy-6″-N-(hexadecanoyl)-kanamycin-tetrakis-(trifluoroacetate)] | 8 µg/mL | 64 µg/mL | 8 µg/mL | 2 µg/mL | 32 µg/mL | 2 µg/mL | 16 µg/mL | 8 µg/mL | 32 µg/mL | 64 µg/mL | 64 µg/mL | 32 µg/mL | 20% |  |  |
| CCCCC/C=C\C/C=C\CCCCCCCC(=O)NC[C@H]1O[C@@H](O[C@@H]2[C@@H](O)[C@H](N)C[C@H](N)[C@H]2O[C@H]2O[C@H](CN)[C@@H](O)[C@H](O)[C@H]2N)[C@H](O)[C@@H]1O[C@H]1O[C@@H](CN)[C@@H](O)[C@H](O)[C@H]1N.O=C(O)C(F)(F)F.O=C(O)C(F)(F)F.O=C(O)C(F)(F)F.O=C(O)C(F)(F)F.O=C(O)C(F)(F)F.O=C(O)C(F)(F)F [Compound 5] |  | 128 µg/mL | 16 µg/mL | 4 µg/mL | 128 µg/mL | 4 µg/mL | 32 µg/mL |  | 64 µg/mL | 256 µg/mL | 128 µg/mL | 128 µg/mL |  |  |  |
| CC(C)c1cc(C(C)C)c(S(=O)(=O)OCC2OC(OC3C(NC(=O)OC(C)(C)C)CC(NC(=O)OC(C)(C)C)C(OC4OC(CNC(=O)OC(C)(C)C)C(O)C(O)C4O)C3O)C(O)C(NC(=O)OC(C)(C)C)C2O)c(C(C)C)c1 (centres unmarked) [Compound 17, 6″-(2,4,6-Triisopropylbenzenesulfonyl)-1,3,6′,3″-tetra-N-(tert-butoxycarbonyl)kanamycin A] |  |  |  |  |  |  |  |  |  |  |  |  |  | reduced hemolytic activity |  |
| NC[C@H]1O[C@H](O[C@H]2[C@H](O)[C@@H](O[C@H]3O[C@H](CO)[C@@H](O)[C@H](N)[C@H]3O)[C@H](N)C[C@@H]2N)[C@H](O)[C@@H](O)[C@@H]1O [Kanamycin A, reference compound] |  | 8 µg/mL (≈ 16.5 µM) | 4 µg/mL (≈ 8.26 µM) | 128 µg/mL (≈ 264 µM) | 8 µg/mL (≈ 16.5 µM) | 2 µg/mL (≈ 4.13 µM) | >512 µg/mL |  | 16 µg/mL (≈ 33 µM) | >512 µg/mL | >512 µg/mL | 32 µg/mL (≈ 66 µM) | <0.4% |  |  |
| CCCCCCCCCCCCCCCCCCCC(=O)NC[C@H]1O[C@@H](O[C@@H]2[C@@H](O)[C@H](N)C[C@H](N)[C@H]2O[C@H]2O[C@H](CN)[C@@H](O)[C@H](O)[C@H]2N)[C@H](O)[C@@H]1O[C@H]1O[C@@H](CN)[C@@H](O)[C@H](O)[C@H]1N.O=C(O)C(F)(F)F.O=C(O)C(F)(F)F.O=C(O)C(F)(F)F.O=C(O)C(F)(F)F.O=C(O)C(F)(F)F.O=C(O)C(F)(F)F [Compound 4] |  | 64 µg/mL | 8 µg/mL | 4 µg/mL | 128 µg/mL | 4 µg/mL | 8 µg/mL |  | 128 µg/mL | 128 µg/mL | 64 µg/mL | 64 µg/mL |  |  | 82% |
| C[C@H](CCC(=O)NC[C@H]1O[C@@H](O[C@@H]2[C@@H](O)[C@H](N)C[C@H](N)[C@H]2O[C@H]2O[C@H](CN)[C@@H](O)[C@H](O)[C@H]2N)[C@H](O)[C@@H]1O[C@H]1O[C@@H](CN)[C@@H](O)[C@H](O)[C@H]1N)[C@H]1CC[C@H]2[C@@H]3[C@H](O)C[C@@H]4C[C@H](O)CC[C@]4(C)[C@H]3C[C@H](O)[C@]12C.O=C(O)C(F)(F)F.O=C(O)C(F)(F)F.O=C(O)C(F)(F)F.O=C(O)C(F)(F)F.O=C(O)C(F)(F)F.O=C(O)C(F)(F)F [Compound 7] |  | >256 µg/mL | 16 µg/mL | 16 µg/mL | 32 µg/mL | 8 µg/mL | 128 µg/mL |  | 64 µg/mL | >256 µg/mL | 128 µg/mL | 64 µg/mL |  |  |  |
| CCCCCCCCCCCCCCCC(=O)NC[C@H]1O[C@@H](O[C@@H]2[C@@H](O)[C@H](N)C[C@H](N)[C@H]2O[C@H]2O[C@H](CN)[C@@H](O)[C@H](O)[C@H]2N)[C@H](O)[C@@H]1O[C@H]1O[C@@H](CN)[C@@H](O)[C@H](O)[C@H]1N.O=C(O)C(F)(F)F.O=C(O)C(F)(F)F.O=C(O)C(F)(F)F.O=C(O)C(F)(F)F.O=C(O)C(F)(F)F.O=C(O)C(F)(F)F [Compound 3] |  | 64 µg/mL | 4 µg/mL | 2 µg/mL | 32 µg/mL | 2 µg/mL | 8 µg/mL |  | 64 µg/mL | 128 µg/mL | 128 µg/mL |  |  |  | 56% |
| NC[C@@H]1O[C@H](O[C@H]2[C@@H](O)[C@H](O[C@@H]3[C@@H](O)[C@H](N)C[C@H](N)[C@H]3O[C@H]3O[C@H](CN)[C@@H](O)[C@H](O)[C@H]3N)O[C@@H]2CNC(=O)CCCc2ccc3ccc4cccc5ccc2c3c45)[C@H](N)[C@@H](O)[C@@H]1O.O=C(O)C(F)(F)F.O=C(O)C(F)(F)F.O=C(O)C(F)(F)F.O=C(O)C(F)(F)F.O=C(O)C(F)(F)F.O=C(O)C(F)(F)F [Compound 6] |  | >512 µg/mL | 16 µg/mL | 64 µg/mL | 32 µg/mL | 2 µg/mL | 256 µg/mL |  | 64 µg/mL | >512 µg/mL | 256 µg/mL | 64 µg/mL |  |  |  |
| CCCCCCCCCCCC(=O)NC[C@H]1O[C@@H](O[C@@H]2[C@@H](O)[C@H](N)C[C@H](N)[C@H]2O[C@H]2O[C@H](CN)[C@@H](O)[C@H](O)[C@H]2N)[C@H](O)[C@@H]1O[C@H]1O[C@@H](CN)[C@@H](O)[C@H](O)[C@H]1N.O=C(O)C(F)(F)F.O=C(O)C(F)(F)F.O=C(O)C(F)(F)F.O=C(O)C(F)(F)F.O=C(O)C(F)(F)F.O=C(O)C(F)(F)F [Compound 2] |  | 128 µg/mL | 32 µg/mL | 8 µg/mL | 64 µg/mL | 4 µg/mL | >256 µg/mL |  | 64 µg/mL | 256 µg/mL | 256 µg/mL | 128 µg/mL |  |  |  |
